Measured values published in patent publication US20220267352A1, “RAPAMYCIN ANALOGS AND USES THEREOF” (Anakuria Therapeutics, Inc., priority 2021, published 2022).

How the values were obtained:
Type in all cases: cell-based
[1] = system: p-p70 S6 Kinase (Thr389) in MCF-7 cells; experiment: AlphaLISA Ultra pS6K1 assay; conditions: Homo sapiens, 1.5 h; MCF7 cells, 90 min
Summary of the method: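 MCF-7 cells seeded 20–24 h, given fresh medium 2 h, then treated with compounds 90 min (0.5% DMSO final). Cells lysed, lysates frozen at −80 °C, then Thr389-phosphorylated S6K1 detected by AlphaLISA Ultra with acceptor beads 2 h, then donor beads 2 h.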

mTORC1 over mTORC2 = mTORC1 over mTORC2 selectivity by comparing pS6K1 and pAKT IC50; conditions: by comparing pS6K1 and pAKT IC50, 90 min
Method: Assay Protocol: • 1. Seed MCF-7 cells in Corning 3701 plate and incubate for 20˜24 hour. 12,000˜16,000 cells will be seeded in 36 μL medium per well. • 2. Change the culture medium with fresh medium and incubate for another 2 hours. • 3. Add 12 μL (4×) compounds into the cell plate by HAMILTON. Final DMSO concentration is 0.5%. Incubate for 90 minutes. • 4. Aspirate 38 μL by HAMILTON, 10 μL rest per well. • 5. Add 10 μL 2× lysis buffer using HAMILTON; total volume in wells is 20 μL. Allow cells to shake for 30 min. Cover plate by plastic foil and store plate at −80° C. up to analysis. • 6. Thaw cell lysate at RT and transfer 10 μL lysate to assay plate (Optiplate-384). • 7. Add 5 μL acceptor beads into assay plate and incubation for 2 hours • 8. Add 5 μL donor beads and incubation for 2 hours • 9. Count the plate by EnSpire Multimode Plate Reader […]
Compounds that are not selective by comparing pS6K1 and pAKT IC50 by kinase assays are indicated by “NO” in the “mTORC1 selective @ 90 min” column of Table 4. […] Compounds that are not selective at the 24 hrs mark are indicated by “NO” in the “mTORC1 selective @ 24 hrs” column of Table 4. “N/A” stands for “not assayed” and “N/C” stands for “not calculated”.

[2] = system: p-Akt 1/2/3 (Ser473) in MCF-7 cells; experiment: AlphaLISA Ultra pAKT assay; conditions: Homo sapiens, 1.5 h; MCF7 cells, 90 min
Summary of the method: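 MCF-7 cells (16,000˜20,000 per well in 36 μL medium) were seeded in Corning 3701 plates for 20˜24 hour, refreshed with new medium for 90 minutes, then given 12 μL of 4× compound (0.5% final DMSO). Cells were lysed with 2× lysis buffer, and lysate was analyzed by AlphaLISA Ultra pAKT using acceptor and donor beads, read on an EnSpire reader.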

SMILES | IC50 [1] | IC50 [2] | mTORC1 selective @ 90 min (mTORC1 over mTORC2)
CO[C@@H]1/C(C)=C/[C@@H](C)C(=O)C[C@@H]([C@H](C)C[C@@H]2CC[C@@H](OP(C)(C)=O)[C@H](OC)C2)OC(=O)[C@@H]2CCCCN2C(=O)C(=O)[C@]2(O)O[C@@H](CC[C@H]2C)C[C@H](OCC2COCCO2)/C(C)=C/C=C/C=C/[C@@H](C)C[C@@H](C)C(=O)[C@@H]1OC (stereo partly drawn) [I-25, (27E,29E,31E,32E,35R,36S,37R,38R,40S,42S,44S,45S,47R,48R,57R)-45-[(1R)-2-[(1S,3R,4R)-4-dimethylphosphoryloxy-3-methoxy-cyclohexyl]-1-methyl-ethyl]-44-(1,4-dioxan-2-ylmethoxy)-57-hydroxy-47,48-dimethoxy-35,36,37,38,49,50-hexamethyl-68,69-dioxa-58-azatricyclohexatriaconta-27,29,31(49),32(50)-tetraene-51,52,53,54,55-pentone] | 10 to 100 nM | ≥ 1000 nM | Yes
COCCO[C@@H]1CC[C@@H](C[C@@H](C)[C@@H]2CC(=O)[C@H](C)/C=C(\C)[C@@H](OC)[C@@H](OC)C(=O)[C@H](C)C[C@H](C)/C=C/C=C/C=C(\C)C(OCCOCCOC3COC3)C[C@@H]3CC[C@@H](C)[C@@](O)(O3)C(=O)C(=O)N3CCCC[C@H]3C(=O)O2)C[C@H]1OC (stereo partly drawn) [I-81, (1R,9S,12S,15R,16E,18R,19R,21R,23S,24E,26E,28E,32S,35R)-1-hydroxy-18,19-dimethoxy-12-[(1R)-2-[(1S,3R,4R)-3-methoxy-4-(2-methoxyethoxy)cyclohexyl]-1-methyl-ethyl]-15,17,21,23,29,35-hexamethyl-30-[2-[2-(oxetan-3-yloxy)ethoxy]ethoxy]-11,36-dioxa-4-azatricyclo[30.3.1.0^4,9]hexatriaconta-16,24,26,28-tetraene-2,3,10,14,20-pentone] | 10 to 100 nM | ≥ 1000 nM | Yes
COCCOCCO[C@@H]1C[C@@H]2CC[C@@H](C)[C@@](O)(O2)C(=O)C(=O)N2CCCC[C@H]2C(=O)O[C@H]([C@H](C)C[C@@H]2CC[C@@H](O)[C@H](OC)C2)CC(=O)[C@H](C)/C=C(\C)[C@@H](OC)[C@@H](OC)C(=O)[C@H](C)C[C@H](C)/C=C/C=C/C=C/1C [I-48, (23E,25E,27E,28E,34R,35S,36R,37R,39S,41S,43R,44S,45R,46R,55R)-55-hydroxy-44-[(1R)-2-[(1S,3R,4R)-4-hydroxy-3-methoxy-cyclohexyl]-1-methyl-ethyl]-45,46-dimethoxy-43-[2-(2-methoxyethoxy)ethoxy]-34,35,36,37,47,48-hexamethyl-64,65-dioxa-56-azatricyclohexatriaconta-23,25,27(47),28(48)-tetraene-49,50,51,52,53-pentone] | 1 to 10 nM | ≥ 1000 nM | Yes
CO[C@@H]1C[C@H](C[C@@H](C)[C@@H]2CC(=O)[C@H](C)/C=C(\C)[C@@H](O)[C@@H](OC)C(=O)[C@H](C)C[C@H](C)/C=C/C=C/C=C(\C)[C@H](OCC3COCCO3)C[C@@H]3CC[C@@H](C)[C@@](O)(O3)C(=O)C(=O)N3CCCC[C@H]3C(=O)O2)CC[C@H]1OC(=O)NCCN1CCOCC1 (stereo partly drawn) [I-102, [(42S,44R,46R)-4-[(2R)-2-[(28E,30E,32E,33E,38R,39S,40R,41R,43S,45S,47R,48S,50R,51R,61R)-47-(1,4-dioxan-2-ylmethoxy)-50,61-dihydroxy-51-methoxy-38,39,40,41,52,53-hexamethyl-54,55,56,57,58-pentaoxo-76,77-dioxa-64-azatricyclohexatriaconta-28,30,32(52),33(53)-tetraen-48-yl]propyl]-46-methoxy-44-cyclohexyl] N-(2-morpholinoethyl)carbamate] | < 1 nM | ≥ 1000 nM | Yes
CO[C@@H]1C[C@H](C[C@@H](C)[C@@H]2CC(=O)[C@H](C)/C=C(\C)[C@@H](O)[C@@H](OC)C(=O)[C@H](C)C[C@H](C)/C=C/C=C/C=C(\C)[C@H](OCC3COCCO3)C[C@@H]3CC[C@@H](C)[C@@](O)(O3)C(=O)C(=O)N3CCCC[C@H]3C(=O)O2)CC[C@H]1OCCCO (stereo partly drawn) [I-92, (24E,26E,28E,29E,35R,36S,37R,38R,40S,42S,44R,45S,47R,48R,57R)-44-(1,4-dioxan-2-ylmethoxy)-47,57-dihydroxy-45-[(1R)-2-[(1S,3R,4R)-4-(3-hydroxypropoxy)-3-methoxy-cyclohexyl]-1-methyl-ethyl]-48-methoxy-35,36,37,38,49,50-hexamethyl-69,70-dioxa-58-azatricyclohexatriaconta-24,26,28(49),29(50)-tetraene-51,52,53,54,55-pentone] | 10 to 100 nM | ≥ 1000 nM | Yes
CO[C@@H]1C[C@H](C[C@@H](C)[C@@H]2CC(=O)[C@H](C)/C=C(\C)[C@@H](O)[C@@H](OC)C(=O)[C@H](C)C[C@H](C)/C=C/C=C/C=C(\C)C(OCC3COCCO3)C[C@@H]3CC[C@@H](C)[C@@](O)(O3)C(=O)C(=O)N3CCCC[C@H]3C(=O)O2)CC[C@H]1OC(=O)N(C)CCN1CCOCC1 (stereo partly drawn) [I-99, [(40S,42R,44R)-4-[(2R)-2-[(27E,29E,31E,32E,36R,37S,38R,39R,41S,43S,45S,46S,47R,48R,58R)-47,58-dihydroxy-45,48-dimethoxy-36,37,38,39,49,50-hexamethyl-51,52,53,54,55-pentaoxo-71,72-dioxa-60-azatricyclohexatriaconta-27,29,31(49),32(50)-tetraen-46-yl]propyl]-44-methoxy-42-cyclohexyl]N-methyl-N-(2-morpholinoethyl)carbamate] | 1 to 10 nM | ≥ 1000 nM | Yes

Further lines, with some results ahead:

IC50 [1] | IC50 [2] | SMILES | mTORC1 selective @ 90 min (mTORC1 over mTORC2)
10 to 100 nM | ≥ 1000 nM | COCCO[C@@H]1CC[C@@H](C[C@@H](C)[C@@H]2CC(=O)[C@H](C)/C=C(\C)[C@@H](OC)[C@@H](OC)C(=O)[C@H](C)C[C@H](C)/C=C/C=C/C=C(\C)C(OCCOC3COC3)C[C@@H]3CC[C@@H](C)[C@@](O)(O3)C(=O)C(=O)N3CCCC[C@H]3C(=O)O2)C[C@H]1OC (stereo partly drawn) [I-94, (25E,27E,29E,30E,36R,37S,38R,39R,41S,43S,46S,48R,49R,58R)-58-hydroxy-48,49-dimethoxy-46-[(1R)-2-[(1S,3R,4R)-3-methoxy-4-(2-methoxyethoxy)cyclohexyl]-1-methyl-ethyl]-36,37,38,39,50,51-hexamethyl-45-[2-(oxetan-3-yloxy)ethoxy]-67,68-dioxa-59-azatricyclohexatriaconta-25,27,29(50),30(51)-tetraene-52,53,54,55,56-pentone] | Yes
10 to 100 nM | ≥ 1000 nM | CO[C@@H]1C[C@H](C[C@@H](C)[C@@H]2CC(=O)[C@H](C)/C=C(\C)[C@@H](O)[C@@H](OC)C(=O)[C@H](C)C[C@H](C)/C=C/C=C/C=C(\C)[C@H](OCC3COCCO3)C[C@@H]3CC[C@@H](C)[C@@](O)(O3)C(=O)C(=O)N3CCCC[C@H]3C(=O)O2)CC[C@H]1OC(F)F (stereo partly drawn) [I-10, (24E,26E,28E,29E,32R,33S,34R,35R,37S,39S,41R,42S,44R,45R,55R)-42-[(1R)-2-[(1S,3R,4R)-4-(difluoromethoxy)-3-methoxy-cyclohexyl]-1-methyl-ethyl]-41-(1,4-dioxan-2-ylmethoxy)-44,55-dihydroxy-45-methoxy-32,33,34,35,46,47-hexamethyl-66,67-dioxa-56-azatricyclohexatriaconta-24,26,28(46),29(47)-tetraene-48,49,50,51,52-pentone] | Yes
1 to 10 nM | ≥ 1000 nM | CO[C@@H]1C[C@H](C[C@@H](C)[C@@H]2CC(=O)[C@H](C)/C=C(\C)[C@@H](O)[C@@H](OC)C(=O)[C@H](C)C[C@H](C)/C=C/C=C/C=C(\C)[C@H](OC[C@@H]3COCCO3)C[C@@H]3CC[C@@H](C)[C@@](O)(O3)C(=O)C(=O)N3CCCC[C@H]3C(=O)O2)CC[C@H]1OCCO [I-84, (1R,9S,12S,15R,16E,18R,19R,21R,23S,24E,26E,28E,30R,32S,35R)-30-[[(2S)-1,4-dioxan-2-yl]methoxy]-1,18-dihydroxy-12-[(1R)-2-[(1S,3R,4R)-4-(2-hydroxyethoxy)-3-methoxy-cyclohexyl]-1-methyl-ethyl]-19-methoxy-15,17,21,23,29,35-hexamethyl-11,36-dioxa-4-azatricyclo[30.3.1.04,9]hexatriaconta-16,24,26,28-tetraene-2,3,10,14,20-pentone] | Yes
